Patent publication US20110293643A1, “COMPOUNDS AND METHODS FOR INHIBITING MMP2 AND MMP9” (priority 2009, published 2011)

What was measured:
CD4+ T cells = test: anti-CD3 induced T cell proliferation (3H thymidine incorporation), CD4+ T cells; assay type: cell-based, mouse
Protocol: (§1) The non-specific MMP inhibitor, 1,10-phenanthroline (Sigma, St. Louis, Mo.) was reconstituted to 1 M solution in dimethyl sulfoxide (DMSO) and diluted to 0.001-0.1 μM in complete RPMI (cRPMI), composed of RPMI, […] L-glutamine, 100 U penicillin streptomycin (Gibco, Carlsbad, Calif.), 10% FCS (Hyclone, Logan, Utah), and 5×10^−5 M 2-mercaptoethanol (Sigma, St. Louis, Mo.).
(§2) CD4^+ or CD8^+ T cells were isolated from wild-type Balb/c or C57BL/6 mice (1×10^6/ml) and incubated with the indicated concentrations of MMPIs or vehicle control for 6 hours. The treated cells were then washed three times in RPMI and cultured (1×10^5/well) in a 96 well plate in 200 μl of cRPMI in the presence of anti-CD3 antibody (0.5-1 μg/ml, BD Biosciences, San Jose, Calif.) at 37° C. for 72 hours and harvested as previously reported (Sumpter et al., 2008). This generalized protocol was used to measure T cell proliferation of CD4^+ and CD8^+ T cells following the various isolation methods and treatment conditions indicated. In MMP deficient parallel studies, MMP2−/−, MMP9−/−, MMP2/9−/− mice and littermate controls were cultured in the presence of anti-CD3 antibody for 72 h. […] The cells were washed three times in RPMI and added at varying ratios (treated: untreated) in co-culture with untreated CD4^+25− T cells in the presence of γ-irradiated antigen presenting cells in 200 μl of cRPMI at 37° C. for 72 hours and harvested as previously reported (Sumpter et al., 2008).

T cells [1] = test: cell viability after 1,10-phenanthroline treatment; assay type: cell-based, mouse; conditions: high phenanthroline concentrations
Wistar-Kyoto rat = conditions: rat ischemia reperfusion injury, Iwata et al. 2008; cited from earlier work
rat = rat lung transplantation; cited from earlier work
MMP9 [2] = target: T1, MMP9 (Mus musculus, UniProt P41245); test: MMP9 protein expression by gelatin zymography in CD8+ T cells; assay type: cell-based; conditions: 10 μM
T1 construct: Cell lysates and conditioned media supernatant were collected, concentrated to 4× and centrifuged; endogenous in cells; host or cells: primary splenic CD8+ T cells from wild-type C57BL/6 mice
Protocol: Cell lysates and conditioned media supernatant were collected, concentrated to 4× and centrifuged to remove any cell debris, and stored at −80° C. prior to assay. Samples were then subjected to zymography as reported previously (Yoshida et al., 2007).

CD8+ T cells [3] = test: anti-CD3 induced T cell proliferation (3H thymidine incorporation), CD8+ T cells; assay type: cell-based, mouse
Protocol: as §1
CD4^+ or CD8^+ T cells were isolated from wild-type Balb/c or C57BL/6 mice (1×10^6/ml) and incubated with the indicated concentrations of MMPIs or vehicle control for 6 hours. The treated cells were then washed three times in RPMI and cultured (1×10^5/well) in a 96 well plate in 200 μl of cRPMI in the presence of anti-CD3 antibody (0.5-1 μg/ml, BD Biosciences, San Jose, Calif.) at 37° C. for 72 hours and harvested as previously reported (Sumpter et al., 2008). This generalized protocol was used to measure T cell proliferation of CD4^+ and CD8^+ T cells following the various isolation methods and treatment conditions indicated. In MMP deficient parallel studies, MMP2−/−, MMP9−/−, MMP2/9−/− mice and littermate controls were cultured in the presence of anti-CD3 antibody for 72 h. […]

IL-2 [4] = test: IL-2 protein expression by cytometric bead array; assay type: cell-based, mouse; conditions: 10 μM, various time points, anti-CD3, CD4+ T cells (FIG. 6C, D)
Protocol: Purified MMP9 deficient or SB-3CT-treated (10 μM) CD4^+ T cells were incubated for 6 hours and then washed three times with RPMI 1640. MMP9 deficient or SB-3CT-treated T cells were cultured (1×10^6/ml) with anti-CD3 antibody (0.5 μg/ml) in cRPMI for 1-12 hours. Supernatants were collected and cytokine protein levels were measured using the Mouse Inflammatory Cytokine Bead Array Kit (BD Biosciences, San Jose, Calif.) according to the manufacturer's instructions.

IL-2 [5] = test: IL-2 transcript expression by quantitative RT PCR; assay type: cell-based, mouse; conditions: 10 μM, various time points, anti-CD3, CD4+ T cells (FIG. 6C, D)
Protocol: (§3) Purified CD4^+ T cells were incubated with the indicated concentrations of SB3-CT for 6 hours and then washed three times with RPMI 1640. Drug or vehicle-treated T cells were cultured (1×10^6/ml) with anti-CD3 antibody (0.5 μg/ml) in cRPMI for 1-12 hours. Cells were collected and total RNA was isolated using an RNeasy RNA extraction kit (Qiagen, Inc., Valencia, Calif.) and mRNA expression levels were detected with PerfeCTa™ SYBR Green FastMix, Low ROX (Quanta Biosciences, Gaithersburg, Md.) on a Applied Biosystems 7500 according to the manufacturer's instructions. Each sample was normalized to murine β-actin. Primer sequences were designed and optimized using routine methodologies to specifically amplify each cytokine based on publicly available sequences.

CD8+ T cells [6] = test: anti-CD3 induced intracellular calcium flux (Fluo-4 NW); assay type: cell-based, mouse; conditions: 10 μM
Protocol: Calcium flux was measured in CD4^+ and CD8^+ wild-type or MMP9 deficient or SB-3CT-treated (10 μM) T cells using the Fluo-4 NW Calcium Assay kit (Molecular Probes, Carlsbad, Calif.) in accord with the manufacturer's protocol. Cells were then stimulated with anti-CD3 antibody (10 μg/ml) and read in real time on a Molecular Devices FlexStation I (Sunnyvale, Calif.) for 300 seconds.

NFATc1 = NFATc1 transcript expression by quantitative RT PCR in CD4+ T cells; assay type: cell-based, mouse; conditions: 5-20 μM, anti-CD3, vs vehicle (FIG. 5C)
Protocol: as §3

CD25 = CD25 transcript expression by quantitative RT PCR in CD4+ T cells; assay type: cell-based, mouse; conditions: 5-20 μM, anti-CD3, vs vehicle (FIG. 5D)
Protocol: as §3

MMP9 [7] = target: MMP9 (Homo sapiens, UniProt P14780); conditions: Brown et al., 2000, Toth et al., Forbes et al., 2009; cited from earlier work
CD4+25+ T cells (Tregs) = test: T cell suppressor assay with SB-3CT-treated CD4+25+ T cells (Tregs); assay type: cell-based, mouse; conditions: 10 μM treated CD4+25+ T cells, varying ratios (FIG. 7E)
Protocol: as §2

T cells [8] = test: cell viability by trypan blue exclusion and annexin V staining after SB-3CT; assay type: cell-based, mouse; conditions: following treatment with SB-3CT
Source text: The data described in the Examples herein thus far raise the possibility that SB-3CT-induced cytotoxicity or anergy could account for the observed effects on proliferation.

CC10-OVA mice = test: antigen-specific CD8+ T cell mediated lung injury, adoptive transfer of treated OT-I cells into CC10-OVA mice; assay type: in vivo, mouse
Protocol: Lymph node and spleen were isolated from Thy1.1^+ OT-I transgenic mice and splenic CD8^+ T cells were isolated as stated above. […] 5×10^7 γ-irradiated wild-type splenocytes were cultured in 30 ml of 10% DMEM supplemented with 0.7 μg/ml of OVA peptide ([…]) for 5 min, followed by the addition of OT-1 Thy1.1^+ CD8^+ T cells (5×10^6), anti-CD28 antibody (2 μg/ml), IL-2 (132.02 U/ml) and IL-12 (10 ng/ml). On day 3, the cells were split and supplemented with more IL-2 (25 U/ml) in a final volume of 30 ml. On day 5, cells were harvested and prepared for adoptive transfer into CC10-OVA mice. Cells were resuspended in PBS, and 7.5×10^5 cells were intratracheally instilled into the lungs of CC10-OVA mice.
The lung was finely minced on ice, followed by a 60-90 minute digestion at 37° C. with collagenase/dispase (0.2 mg/ml of each) in RPMI medium with 5% fetal calf serum (FCS), in the presence of 25 μg/ml DNase. Cells were passed through a 70 μm cell strainer, washed, and lung lymphocytes were isolated by density centrifugation. Cells were resuspended in FACS buffer (10% BSA in PBS) and analyzed immediately on a FACScan flow cytometer (Beckton Dickinson). FCS Express (DeNovo Software, Los Angeles, Calif.) was used for further analysis.
BAL was collected from the lungs of wild-types and CC10 mice following adoptive transfer of vehicle and SB-3CT-treated OT-1 Tg T cells, by washing the mouse lung with 1.0 ml of sterile 1×PBS. Collected fluid was then centrifuged for 10 minutes at 2000 rpm. Cell pellets were resuspended in 200 μl of sterile 1×PBS. Cells were then stained with anti-GR1 antibody and analyzed immediately on a FACScan flow cytometer (Beckton Dickinson). FCS Express (DeNovo Software, Los Angeles, Calif.) was used for further analysis.
Lungs were perfused, inflated and fixed with neutral buffered formalin. The sections were then embedded in paraffin, sectioned, and stained with hematoxylin and eosin. Images were acquired at 20× using an Olympus microscope and DP12 digital camera (Olympus, Center Valley, Pa.).

CD4+25− T cells = test: T cell suppressor assay with SB-3CT-treated CD4+25− T cells; assay type: cell-based, mouse
Protocol: as §2

Foxp3 = Foxp3 transcript expression by quantitative RT PCR in CD4+ T cells; assay type: cell-based, mouse; conditions: 10 μM, anti-CD3, CD4+ T cells (FIG. 7B)
Protocol: as §3

[9] = system: OT-I transgenic CD8+ T cells; test: antigen-specific proliferation of OT-I transgenic CD8+ T cells with OVA-pulsed APCs; assay type: cell-based, mouse; conditions: 5-20 μM, SIINFEKL-pulsed APCs, 72 hours (FIG. 8A)

MMP9 (Homo sapiens, UniProt P14780), sequence (P14780 94-707): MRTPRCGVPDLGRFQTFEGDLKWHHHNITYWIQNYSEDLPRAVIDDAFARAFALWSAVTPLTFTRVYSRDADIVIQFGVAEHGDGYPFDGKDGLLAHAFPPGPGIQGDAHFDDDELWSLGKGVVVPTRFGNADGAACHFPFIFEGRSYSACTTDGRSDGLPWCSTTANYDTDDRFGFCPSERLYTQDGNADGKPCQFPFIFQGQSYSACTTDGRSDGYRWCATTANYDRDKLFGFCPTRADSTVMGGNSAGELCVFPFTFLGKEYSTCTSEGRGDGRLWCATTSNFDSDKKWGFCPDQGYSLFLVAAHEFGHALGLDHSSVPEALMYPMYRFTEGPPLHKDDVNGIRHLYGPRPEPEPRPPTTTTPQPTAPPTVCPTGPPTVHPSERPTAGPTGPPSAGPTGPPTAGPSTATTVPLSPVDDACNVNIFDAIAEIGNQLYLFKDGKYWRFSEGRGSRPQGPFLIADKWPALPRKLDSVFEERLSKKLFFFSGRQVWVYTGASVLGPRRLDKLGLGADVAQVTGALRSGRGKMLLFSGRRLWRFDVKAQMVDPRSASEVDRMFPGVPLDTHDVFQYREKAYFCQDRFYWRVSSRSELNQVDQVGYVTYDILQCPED
T1 sequence (P41245 108-730): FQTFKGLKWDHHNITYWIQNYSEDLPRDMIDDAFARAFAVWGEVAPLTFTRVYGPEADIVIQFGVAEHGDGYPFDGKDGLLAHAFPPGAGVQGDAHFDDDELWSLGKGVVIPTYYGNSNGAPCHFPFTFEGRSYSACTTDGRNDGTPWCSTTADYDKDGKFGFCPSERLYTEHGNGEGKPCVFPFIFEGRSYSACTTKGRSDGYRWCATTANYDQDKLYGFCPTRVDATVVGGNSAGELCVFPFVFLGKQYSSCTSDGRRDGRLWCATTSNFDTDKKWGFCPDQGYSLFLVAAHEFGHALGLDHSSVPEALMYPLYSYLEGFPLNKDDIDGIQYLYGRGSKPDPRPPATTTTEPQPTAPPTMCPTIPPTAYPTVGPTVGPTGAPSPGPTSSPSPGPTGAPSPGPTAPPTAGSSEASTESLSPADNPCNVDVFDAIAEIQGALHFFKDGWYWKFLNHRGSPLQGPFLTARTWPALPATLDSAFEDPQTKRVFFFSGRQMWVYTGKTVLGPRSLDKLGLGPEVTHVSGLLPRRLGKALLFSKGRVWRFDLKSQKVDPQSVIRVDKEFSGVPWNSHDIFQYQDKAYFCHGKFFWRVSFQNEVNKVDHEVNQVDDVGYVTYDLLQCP

For `c1cnc2c(c1)ccc1cccnc12` [1,10-phenanthroline], the T cell proliferation (CD4+ T cells; 0.001 μM, 6 hours, then soluble anti-CD3 antibody 72 hours (FIG. 2A)) was “proliferative response similar to untreated anti-CD3 antibody stimulated cells”, the T cell proliferation (CD4+ T cells; higher doses (up to 0.1 μM), 6 hours, then anti-CD3 72 hours, p<0.001 (FIG. 2A)) was “significantly abrogated the proliferative response” and the “cell viability after treatment” value (T cells [1]) was “cells were viable after treatment”.
For `NC(=O)C1=C(O)C[C@@H]2C[C@@H]3Cc4cccc(O)c4C(=O)C3=C(O)[C@]2(O)C1=O` [COL-3], the T cell proliferation (CD4+ T cells; 1 μM, 6 hours, then anti-CD3 72 hours (FIG. 2B)) is given as “proliferative response similar to the untreated control”, the T cell proliferation (CD4+ T cells; higher doses (up to 100 μM), p<0.001 (FIG. 2B)) is given as “dose-dependent decrease in T cell proliferation” and the “antigenic collagen (V) in bronchoalveolar lavage” value (Wistar-Kyoto rat) is given as “lower levels”. The inflammation factors (Wistar-Kyoto rat) was “reduced inflammation factors” and the “intragraft B cell hyperplasia” value (rat) was “induce intragraft B cell hyperplasia”.
With `O=S(=O)(CC1CS1)c1ccc(Oc2ccccc2)cc1` (stereo not drawn) [SB-3CT] the MMP9 protein expression (MMP9 [2]) was “decreased”, the T cell proliferation (CD8+ T cells [3]; 5-25 μM, anti-CD3 72 h, vs vehicle-treated cells (FIG. 2D)) was “dose-dependent decrease in proliferation” and the “T cell proliferation with exogenous IL-2” value (CD8+ T cells [3]; anti-CD3 plus exogenous murine IL-2, 72 h (FIG. 2F)) was “partial recovery of the proliferative response”. The IL-2 protein expression (IL-2 [4]) was “down regulated”, the IL-2 transcript expression (IL-2 [5]) was “increased over time” and the T cell proliferation (CD4+ T cells; 5-25 μM, anti-CD3 72 h, vs vehicle-treated cells (FIG. 2C)) was “dose-dependent decrease in proliferation”. The “T cell proliferation with exogenous IL-2” value (CD4+ T cells; anti-CD3 plus exogenous murine IL-2, 72 h (FIG. 2E)) was “partial recovery of the proliferative response”, the “calcium influx in calcium containing media” value (CD8+ T cells [6]; calcium containing media, anti-CD3 (FIG. 4D)) was “dramatic influx of exogenous calcium” and the “intracellular calcium flux (release from the ER)” value (CD8+ T cells [6]; calcium-free media, anti-CD3 10 μg/ml (FIG. 4C)) was “increased intracellular calcium flux”. For the same compound, the NFATc1 transcript expression (NFATc1) was “abrogated NFATc1 and CD25 transcript expression in a dose-dependent manner”, the CD25 transcript expression (CD25) was “abrogated NFATc1 and CD25 transcript expression in a dose-dependent manner” and the “mode of MMP9 inhibition” value (MMP9 [7]) was “tight-binding inhibition”. The “suppressive function of treated Tregs” value (CD4+25+ T cells (Tregs)) was “retained their suppressive function”, the cell viability (T cells [8]) was “greater than 90%” and the “lung histology, mononuclear cellular infiltration” value (CC10-OVA mice; H&E lung sections after adoptive transfer of treated OT-1 cells) was “mononuclear cellular infiltration was minimal”. The “quantity of total BAL cells” value (CC10-OVA mice; seven days after adoptive transfer of 10 μM treated OT-I cells, vs vehicle (FIG. 8B)) was “no differences”, the “quantity of neutrophils (Gr-1+) in BAL” value (CC10-OVA mice; seven days after adoptive transfer, vs vehicle, p<0.01 (FIG. 8C)) was “decreased significantly” and the “CD8+ Thy1.1+ (donor) cells in lung parenchyma” value (CC10-OVA mice; vs vehicle, p<0.01 (FIG. 9A)) was “significantly fewer”. For the same compound, the “CD25 expression on CD8+ Thy1.1+ T cells in lung” value (CC10-OVA mice; vs vehicle, p<0.01 (FIG. 9B)) was “fewer of these cells expressed the activation marker CD25”, the inhibition at 10 µM (CD4+25− T cells; Mus musculus, T-cell, 10 μM treated CD4+25− cells, each ratio with untreated CD4+25− T cells, 72 hours (FIG. 7D), read-out: inhibition of T cell proliferation in co-culture) was 50% and the “induction of regulatory T cell function” value (CD4+25− T cells; increasing ratio of SB-3CT-treated cells (FIG. 7D)) was “does not induce regulatory T cell function”. For the same compound, the foxp3 transcripts (Foxp3) was “increased” and the antigen-specific proliferation [9] was “completely abrogated the proliferative response”.
For “TIMP-1: tissue-inhibitor of metalloproteinases”, the “delayed type hypersensitivity responses to donor antigens and type V collagen” value (rat) is listed as “differential effects” and the rejection pathology (rat) is listed as “neither affected the onset of rejection pathology”.
